Test results: US9212144B2, “2-aminoquinoline-based compounds for potent and selective neuronal nitric oxide synthase inhibition” (priority 2014, dated 2015)
Several values for one entry are separate records, joined by “and”; a condition that tells them apart may be missing. Equal entries are not always repeated. Structures can show the parent of a compound that is named as a salt. Where two headings read alike, the source gives them in different places.

What was measured:
newborn rabbit kits = conditions: administered intravenously to the dam; cited from earlier work
Caco-2 cells = conditions: background statement on prior art compound; cited from earlier work
rat nNOS = rat nNOS (Rattus norvegicus (Rat), UniProt P29476); assay: Purified NOS enzyme assay (hemoglobin capture), rat nNOS; type: biochemical
bovine eNOS = bovine eNOS (Bos taurus (Bovine), UniProt P29473); assay: Purified NOS enzyme assay (hemoglobin capture), bovine eNOS; type: biochemical; conditions: for Ki: bovine eNOS, Ki calculated from IC50, average of at least two replicates; for Selectivity n/e: ratio of respective Ki values (eNOS/nNOS)
human nNOS = human nNOS (Homo sapiens (Human), UniProt P29475); assay: Purified NOS enzyme assay (hemoglobin capture), human nNOS; type: biochemical
murine macrophage iNOS = murine macrophage iNOS (Mus musculus (Mouse), UniProt P29477); conditions: for Selectivity n/i: ratio of respective Ki values (iNOS/nNOS); for Ki: read-out: Ki iNOS, murine iNOS, Ki calculated from IC50, average of at least two replicates
[1] = rat nNOS, Ki calculated from IC50, average of at least two replicates, read-out: Ki nNOS

| Ki (bovine eNOS) [µM] | Selectivity n/e (bovine eNOS) | Selectivity n/i (murine macrophage iNOS) | Ki (murine macrophage iNOS) [µM] | Ki (rat nNOS; [1]) [µM] | SMILES | also measured |
| --- | --- | --- | --- | --- | --- | --- |
|  |  |  |  |  | Cc1cc(N)nc(C[C@@H]2CNC[C@@H]2NCCNCCc2cccc(F)c2)c1 [Compound 1] | effect on hypoxic-ischemic brain damage phenotype (newborn rabbit kits): reverses a hypoxic-ischemic brain damage phenotype |
|  |  |  |  |  | [H]/N=C(/Nc1cccc(CNCCc2cccc(F)c2)c1)c1cccs1 [Compound 3] | Caco-2 permeability (Caco-2 cells): poor |
| 7.77 | 30 | 97 | 24.5 | 0.254 | Cl.Cl.Nc1ccc2ccc(CCNCc3cccc(F)c3)cc2n1 [Compound 6, 7-[2-(3-Fluorobenzylamino)ethyl]quinolin-2-amine Dihydrochloride] |  |
|  |  |  |  | > 5.7 | Nc1ccc2cc(CCNCc3cccc(F)c3)ccc2n1 [Compound 11, 6-[2-(3-Fluorobenzylamino)ethyl]quinolin-2-amine Dihydrochloride] |  |
|  |  |  |  | > 5.7 | Nc1ccc2cc(CCNCCc3cccc(F)c3)ccc2n1 [Compound 12, 6-[(3-Fluorophenethylamino)ethyl]quinolin-2-amine Dihydrochloride] |  |
| 8.86 | 37 | 280 | 51.2 | 0.183 | Cl.Cl.Nc1ccc2ccc(CCNCCc3ccc(F)cc3)cc2n1 [Compound 14, 7-[(4-Fluorophenethylamino)ethyl]quinolin-2-amine Dihydrochloride] |  |
| 9.89 | 47 | 91 | 19.2 | 0.212 | Cl.Cl.Nc1ccc2ccc(CCNCCc3ccc(Cl)cc3)cc2n1 [Compound 16, 7-[(4-Chlorophenethylamino)ethyl]quinolin-2-amine Dihydrochloride] |  |

| SMILES | Ki (bovine eNOS) [µM] | Selectivity n/e (bovine eNOS) | Selectivity n/i (murine macrophage iNOS) | Ki (murine macrophage iNOS) [µM] | Ki (rat nNOS; [1]) [µM] | also measured |
| --- | --- | --- | --- | --- | --- | --- |
| Cl.Cl.Nc1ccc2ccc(CNCCc3cccc(F)c3)cc2n1 [Compound 5, 7-[(3-Fluorophenethylamino)methyl]quinolin-2-amine Dihydrochloride] | 0.485 | 6.2 | 124 | 9.14 |  | Ki (rat nNOS; purified nNOS, read-out: inhibition of nNOS): 0.074 µM; Ki (rat nNOS; rat nNOS, Ki calculated from IC50, average of at least two replicates, Dihydrochloride, read-out: Ki nNOS): 0.075 µM and 0.074 µM; selectivity for nNOS over eNOS (bovine eNOS): approximately 6 fold; Ki (human nNOS; human nNOS, Ki calculated from IC50, average of at least two replicates): 0.493 µM; Selectivity (Rat/Human) (human nNOS; ratio of respective Ki values, Ki-human/Ki-rat): 6.7 |
| Cl.Cl.Nc1ccc2ccc(CNCCCc3cccc(F)c3)cc2n1 [Compound 9, 7-{2-[3-(3-Fluorophenyl(propylamino)methyl]}quinolin-2-amine Dihydrochloride] | 3.69 |  |  | 32.3 | 0.06 |  |
| Cl.Cl.Nc1ccc2ccc(CNCCCc3cccc(F)c3)cc2n1 [Compound 9] |  | 62 | 538 |  |  |  |
| Nc1ccc2cc(CNCCc3cccc(F)c3)ccc2n1 [Compound 10, 6-[(3-Fluorophenethylamino)methyl]quinolin-2-amine Dihydrochloride] |  |  |  |  | > 5.7 |  |
